This is an account of results in ChEMBL document CHEMBL1201862, “PubChem BioAssay data set” (2004).

Calls of active or inactive are those of the source.

The target in test [1] is T1, RNA-binding protein pos-1 (Caenorhabditis elegans, UniProt G5EF15).
T1 sequence (G5EF15 whole entry): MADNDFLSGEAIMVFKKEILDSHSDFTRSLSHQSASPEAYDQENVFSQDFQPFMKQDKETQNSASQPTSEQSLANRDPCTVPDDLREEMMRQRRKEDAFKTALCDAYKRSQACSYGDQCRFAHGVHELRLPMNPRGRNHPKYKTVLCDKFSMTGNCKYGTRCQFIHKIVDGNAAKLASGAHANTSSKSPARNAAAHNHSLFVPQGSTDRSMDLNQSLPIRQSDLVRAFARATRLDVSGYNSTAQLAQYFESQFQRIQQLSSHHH
Briefly: disruptors of C. elegans POS-1 RNA interaction – biochemical, fluorescence polarization, dose response (AID 1964).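 Also: purified POS-1 fused to maltose binding protein made in E. coli; potency of compounds blocking POS-1 binding to fluorescent RNA.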

The target in test [2] is T2, Zinc finger protein mex-5 (Caenorhabditis elegans, UniProt Q9XUB2).
T2 sequence (Q9XUB2 whole entry): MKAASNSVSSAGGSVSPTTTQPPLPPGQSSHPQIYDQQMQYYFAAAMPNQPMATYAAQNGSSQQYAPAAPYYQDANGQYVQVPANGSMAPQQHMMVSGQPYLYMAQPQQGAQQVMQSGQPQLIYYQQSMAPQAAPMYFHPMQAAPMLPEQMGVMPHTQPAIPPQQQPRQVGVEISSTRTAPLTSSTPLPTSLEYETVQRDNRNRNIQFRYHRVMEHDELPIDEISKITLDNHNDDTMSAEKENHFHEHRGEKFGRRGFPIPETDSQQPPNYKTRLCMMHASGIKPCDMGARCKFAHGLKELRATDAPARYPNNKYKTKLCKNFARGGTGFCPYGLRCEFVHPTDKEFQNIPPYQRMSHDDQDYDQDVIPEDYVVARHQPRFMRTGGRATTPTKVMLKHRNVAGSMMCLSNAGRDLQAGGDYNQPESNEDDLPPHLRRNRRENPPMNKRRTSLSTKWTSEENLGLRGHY
Briefly: potency of MEX-5 RNA-binding blockers – biochemical, C. elegans, fluorescence polarization, dose response (AID 1960).

Test [3] concerns the target Peroxisome proliferator-activated receptor gamma (Homo sapiens, UniProt P37231). Briefly: PPARg transcriptional activation, reporter cells – cell-based, luminescence, assay provider, dose response (AID 504447). In kind it is functional.
Test [4] addresses T3, Corticotropin-releasing factor receptor 2/Corticotropin-releasing factor-binding protein (Homo sapiens, UniProt P24387+Q13324).
T3 sequence (Q13324 whole entry): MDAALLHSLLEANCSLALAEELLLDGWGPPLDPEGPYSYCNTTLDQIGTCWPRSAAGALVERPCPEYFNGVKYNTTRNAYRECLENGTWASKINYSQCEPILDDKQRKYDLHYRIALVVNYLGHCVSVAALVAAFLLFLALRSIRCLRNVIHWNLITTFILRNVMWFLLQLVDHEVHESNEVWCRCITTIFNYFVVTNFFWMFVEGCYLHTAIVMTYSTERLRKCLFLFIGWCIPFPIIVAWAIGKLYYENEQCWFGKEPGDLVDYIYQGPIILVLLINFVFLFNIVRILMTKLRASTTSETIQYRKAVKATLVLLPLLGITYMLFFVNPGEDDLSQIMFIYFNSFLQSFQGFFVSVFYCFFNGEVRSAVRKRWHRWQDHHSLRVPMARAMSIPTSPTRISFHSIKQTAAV
T3 sequence (P24387 whole entry): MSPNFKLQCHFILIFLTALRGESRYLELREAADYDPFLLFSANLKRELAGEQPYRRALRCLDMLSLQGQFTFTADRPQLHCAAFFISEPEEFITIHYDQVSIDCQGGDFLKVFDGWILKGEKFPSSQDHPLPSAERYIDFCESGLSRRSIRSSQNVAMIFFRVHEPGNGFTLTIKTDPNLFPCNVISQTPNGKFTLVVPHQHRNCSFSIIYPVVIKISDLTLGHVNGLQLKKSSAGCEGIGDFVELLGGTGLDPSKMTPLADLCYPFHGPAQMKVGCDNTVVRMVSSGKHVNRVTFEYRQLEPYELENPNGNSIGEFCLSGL
Briefly: activators of CRF receptor 2 with binding protein – uHTS hits, confirmation (AID 602473). In kind it is functional. As to conditions: read-out: EC50_Mean.

For test [5], the target named is Large T antigen (Simian virus 40, UniProt P03070). The test is classed as functional, Betapolyomavirus macacae.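 Also: Confirmatory-stage PubChem screen for compounds that inhibit SV40 T antigen.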
Test [6] addresses Induced myeloid leukemia cell differentiation protein Mcl-1 (Homo sapiens, UniProt Q07820). Kind of test: blockers of MCL1 binding to BIM peptide – biochemical, fluorescence polarization, BIM-BH3 peptide, 1536-well, dose response (AID 2217).
In test [7] the target is Bcl-2-like protein 1 (Homo sapiens, UniProt Q07817). Kind of test: blockers of BCLXL peptide binding – biochemical, fluorescence polarization, 1536-well, selectivity assay for MCL1 inhibitor project, dose response (AID 2218).
Bcl-2-like protein 1, sequence (Q07817 whole entry): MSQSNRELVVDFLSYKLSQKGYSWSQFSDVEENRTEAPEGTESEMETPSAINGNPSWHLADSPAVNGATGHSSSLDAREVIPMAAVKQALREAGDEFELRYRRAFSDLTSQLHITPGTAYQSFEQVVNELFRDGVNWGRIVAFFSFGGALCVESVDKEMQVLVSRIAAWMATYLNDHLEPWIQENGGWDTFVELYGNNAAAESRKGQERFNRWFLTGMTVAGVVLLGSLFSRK
In test [8] the target is Glucose-6-phosphate 1-dehydrogenase (Homo sapiens, UniProt P11413). Briefly: inhibition of Homo sapiens G6PD, dose series – biochemical, fluorescence, selectivity assay for P. falciparum G6PD inhibitor project, dose response (AID 504792). In kind it is functional.
Glucose-6-phosphate 1-dehydrogenase, sequence (P11413 whole entry): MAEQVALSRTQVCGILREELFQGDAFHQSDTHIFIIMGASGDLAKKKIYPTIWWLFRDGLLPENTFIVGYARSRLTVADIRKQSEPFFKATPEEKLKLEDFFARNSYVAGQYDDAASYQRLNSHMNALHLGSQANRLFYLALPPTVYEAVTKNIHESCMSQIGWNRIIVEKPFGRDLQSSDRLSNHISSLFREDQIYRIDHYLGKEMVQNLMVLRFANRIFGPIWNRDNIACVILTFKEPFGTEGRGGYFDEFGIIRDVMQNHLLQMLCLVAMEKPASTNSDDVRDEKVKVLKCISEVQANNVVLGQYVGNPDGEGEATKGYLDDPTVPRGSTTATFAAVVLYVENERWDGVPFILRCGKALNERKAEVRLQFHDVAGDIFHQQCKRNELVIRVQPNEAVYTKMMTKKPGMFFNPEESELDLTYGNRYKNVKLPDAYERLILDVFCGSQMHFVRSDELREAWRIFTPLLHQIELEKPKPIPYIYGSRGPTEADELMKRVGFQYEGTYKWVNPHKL
The target of test [9] is Intestinal-type alkaline phosphatase (Homo sapiens, UniProt P09923). Briefly: activation of human intestinal alkaline phosphatase – biochemical, dose response (AID 488873). The test is classed as functional.
Test [10] has as its target Intestinal-type alkaline phosphatase (Mus musculus, UniProt P24822). Briefly: mouse intestinal alkaline phosphatase activators, dose response, biochemical, luminescence, uHTS hits (AID 488783). In kind it is functional.
In test [11] the target is T4, Alkaline phosphatase, tissue-nonspecific isozyme (Homo sapiens, UniProt P05186).
T4 sequence (P05186 whole entry): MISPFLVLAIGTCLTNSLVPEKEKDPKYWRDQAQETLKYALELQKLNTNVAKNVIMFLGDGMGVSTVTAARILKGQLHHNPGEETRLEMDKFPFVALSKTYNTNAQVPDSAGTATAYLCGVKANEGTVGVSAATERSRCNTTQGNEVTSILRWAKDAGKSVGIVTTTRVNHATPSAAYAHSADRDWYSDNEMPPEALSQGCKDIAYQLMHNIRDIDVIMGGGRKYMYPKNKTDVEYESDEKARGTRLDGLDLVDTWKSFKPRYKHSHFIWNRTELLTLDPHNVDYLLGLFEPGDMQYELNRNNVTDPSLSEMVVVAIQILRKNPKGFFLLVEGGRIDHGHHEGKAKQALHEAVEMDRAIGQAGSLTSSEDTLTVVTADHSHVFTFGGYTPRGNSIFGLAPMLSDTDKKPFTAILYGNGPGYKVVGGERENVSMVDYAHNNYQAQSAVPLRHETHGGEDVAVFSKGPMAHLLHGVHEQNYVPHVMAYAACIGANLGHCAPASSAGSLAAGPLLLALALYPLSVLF
Kind of test: activation of tissue-nonspecific alkaline phosphatase – biochemical, TNAP isozyme, mouse IAP uHTS hits, selectivity assay for mouse IAP activator project, dose response (AID 488880). In kind it is functional.

The target of test [12] is Heat shock protein HSP 90-alpha (Homo sapiens, UniProt P07900). The test is classed as functional, organism-based.
Test [13] has as its system Vero. Kind of test: cells. The test is classed as functional. Conditions: Chlorocebus sabaeus.
In test [14] the target is SUMO-activating enzyme (Homo sapiens, UniProt Q9UBT2). Kind of test: blockers of UBC9-mediated SUMO conjugation – biochemical, AlphaScreen, SUMOylation inhibitor project, confirmation (AID 2018). In kind it is functional.
SUMO-activating enzyme, sequence (Q9UBE0 whole entry): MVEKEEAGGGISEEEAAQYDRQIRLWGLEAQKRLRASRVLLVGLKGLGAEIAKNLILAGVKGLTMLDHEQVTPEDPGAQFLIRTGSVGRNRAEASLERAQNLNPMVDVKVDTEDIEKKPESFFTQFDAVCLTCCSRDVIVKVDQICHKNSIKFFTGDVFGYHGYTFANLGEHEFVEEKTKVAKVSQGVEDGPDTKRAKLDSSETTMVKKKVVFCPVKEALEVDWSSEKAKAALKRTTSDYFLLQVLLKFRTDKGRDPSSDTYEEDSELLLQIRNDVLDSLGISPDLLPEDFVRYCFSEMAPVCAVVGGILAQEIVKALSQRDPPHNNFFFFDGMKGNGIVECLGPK
SUMO-activating enzyme, sequence (Q9UBT2 whole entry): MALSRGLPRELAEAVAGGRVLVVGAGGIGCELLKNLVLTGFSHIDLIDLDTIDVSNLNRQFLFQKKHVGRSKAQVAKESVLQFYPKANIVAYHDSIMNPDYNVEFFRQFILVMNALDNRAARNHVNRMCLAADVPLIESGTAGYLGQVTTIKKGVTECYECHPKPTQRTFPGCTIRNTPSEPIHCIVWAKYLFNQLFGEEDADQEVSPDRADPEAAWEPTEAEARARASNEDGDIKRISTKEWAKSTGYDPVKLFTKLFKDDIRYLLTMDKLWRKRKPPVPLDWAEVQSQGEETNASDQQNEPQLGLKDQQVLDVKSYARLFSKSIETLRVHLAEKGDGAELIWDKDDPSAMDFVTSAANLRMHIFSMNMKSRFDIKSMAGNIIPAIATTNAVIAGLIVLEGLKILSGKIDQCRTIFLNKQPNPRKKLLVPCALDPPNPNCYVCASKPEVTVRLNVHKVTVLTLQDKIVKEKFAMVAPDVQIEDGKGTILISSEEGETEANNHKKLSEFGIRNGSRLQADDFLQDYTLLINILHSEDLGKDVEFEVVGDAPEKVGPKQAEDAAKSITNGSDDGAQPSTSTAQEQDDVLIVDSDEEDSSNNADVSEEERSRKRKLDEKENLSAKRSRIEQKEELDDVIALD
Test [15] deals with Troponin, cardiac muscle (Homo sapiens, UniProt P19429+P45379+P63316). Briefly: Fluorescence-based biochemical high throughput dose response assay for activators of the calcium sensitivity of cardiac Regulated Thin Filaments (RTF). [Related pubchem assays (depositor defined):AID493008, AID493018, AID504382, AID504383]. In kind it is protein-complex assay.
In test [16] the target is T5, E3 ubiquitin-protein ligase XIAP (Homo sapiens, UniProt P98170). Briefly: Counter Screen using XIAP-Bir3 for Chemical Antagonists of Bir1/2 domains of IAP-family anti-apoptotic proteins. [Related pubchem assays (depositor defined):AID1018, AID1449, AID1514, AID1638, AID1749, AID1750, AID488957, AID488963].
T5 sequence (P98170 whole entry): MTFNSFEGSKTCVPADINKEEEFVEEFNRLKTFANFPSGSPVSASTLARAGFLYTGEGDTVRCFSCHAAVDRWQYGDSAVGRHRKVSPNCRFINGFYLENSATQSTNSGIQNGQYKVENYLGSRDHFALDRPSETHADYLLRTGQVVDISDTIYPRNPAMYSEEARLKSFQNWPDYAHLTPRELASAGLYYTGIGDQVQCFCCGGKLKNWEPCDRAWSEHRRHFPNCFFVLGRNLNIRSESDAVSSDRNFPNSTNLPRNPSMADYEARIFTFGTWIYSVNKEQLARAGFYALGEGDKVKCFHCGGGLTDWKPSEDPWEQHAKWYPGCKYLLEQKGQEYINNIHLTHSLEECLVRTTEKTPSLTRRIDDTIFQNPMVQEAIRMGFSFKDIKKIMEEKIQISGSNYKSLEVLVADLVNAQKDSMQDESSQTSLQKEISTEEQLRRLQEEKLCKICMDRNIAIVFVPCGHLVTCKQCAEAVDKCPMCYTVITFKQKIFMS
The target in test [17] is T5, E3 ubiquitin-protein ligase XIAP. Kind of test: small molecules displacing peptide from XIAP – biochemical, IAP family, fluorescence polarization (AID 1018). The test is classed as functional.
For test [18], the target named is Kappa-type opioid receptor (Homo sapiens, UniProt P41145). Briefly: SAR analysis of small molecule agonists of the kappa opioid receptor via a luminescent beta-arrestin assay - Set 3. [Related pubchem assays (depositor defined):AID1777, AID1785, AID1786, AID1966, AID2133, AID2136, AID2284, AID2500]. The test is classed as functional.
Kappa-type opioid receptor, sequence (P41145 whole entry): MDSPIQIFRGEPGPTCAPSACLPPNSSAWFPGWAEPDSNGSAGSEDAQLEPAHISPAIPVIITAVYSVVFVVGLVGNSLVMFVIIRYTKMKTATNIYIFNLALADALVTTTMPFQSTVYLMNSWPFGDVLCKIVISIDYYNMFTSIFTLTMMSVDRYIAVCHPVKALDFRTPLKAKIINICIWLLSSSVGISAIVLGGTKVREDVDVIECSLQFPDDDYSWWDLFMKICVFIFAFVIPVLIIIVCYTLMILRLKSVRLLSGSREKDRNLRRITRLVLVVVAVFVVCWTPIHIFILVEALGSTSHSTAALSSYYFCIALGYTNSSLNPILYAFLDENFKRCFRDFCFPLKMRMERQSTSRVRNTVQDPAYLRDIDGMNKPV
Test [19] concerns the target T6, Cannabinoid receptor 2 (Homo sapiens, UniProt P34972). Kind of test: SAR analysis of antagonists of the Cannabinoid Receptor 2 using an Image-Based Assay - Set 2. [Related pubchem assays (depositor defined):AID1961, AID1965]. In kind it is functional.
Test [20] deals with G-protein coupled receptor 55 (Homo sapiens, UniProt Q9Y2T6). Kind of test: SAR analysis of selective Agonists of GPR55 using an Image-Based Assay - Set 2. [Related pubchem assays (depositor defined):AID1961, AID1965]. In kind it is functional.
The target of test [21] is T6, Cannabinoid receptor 2. Kind of test: SAR analysis of agonists of the Cannabinoid Receptor 2 using an Image-Based Assay - Set 2. [Related pubchem assays (depositor defined):AID1961, AID1965]. The test is classed as functional.
Test [22] deals with T7, G-protein coupled receptor 35 (Homo sapiens, UniProt Q9HC97). Kind of test: SAR analysis of Agonists of the GPR35 Receptor using an Image-Based Assay - Set 3. [Related pubchem assays (depositor defined):AID1961, AID1965]. The test is classed as functional.
T7 sequence (Q9HC97 whole entry): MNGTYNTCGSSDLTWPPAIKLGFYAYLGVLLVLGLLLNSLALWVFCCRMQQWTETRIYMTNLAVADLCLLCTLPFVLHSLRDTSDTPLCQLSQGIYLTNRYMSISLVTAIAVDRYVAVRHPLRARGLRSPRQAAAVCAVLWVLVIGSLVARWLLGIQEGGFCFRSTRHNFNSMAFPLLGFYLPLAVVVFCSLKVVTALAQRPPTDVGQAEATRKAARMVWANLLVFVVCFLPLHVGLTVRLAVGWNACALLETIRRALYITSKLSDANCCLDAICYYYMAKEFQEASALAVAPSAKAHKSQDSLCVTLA
For test [23], the target named is T8, Cannabinoid receptor 1 (Homo sapiens, UniProt P21554). Kind of test: SAR analysis of antagonists of the Cannabinoid Receptor 1 using an Image-Based Assay - Set 3. [Related pubchem assays (depositor defined):AID1961, AID1965]. The test is classed as functional.
T8 sequence (P21554 whole entry): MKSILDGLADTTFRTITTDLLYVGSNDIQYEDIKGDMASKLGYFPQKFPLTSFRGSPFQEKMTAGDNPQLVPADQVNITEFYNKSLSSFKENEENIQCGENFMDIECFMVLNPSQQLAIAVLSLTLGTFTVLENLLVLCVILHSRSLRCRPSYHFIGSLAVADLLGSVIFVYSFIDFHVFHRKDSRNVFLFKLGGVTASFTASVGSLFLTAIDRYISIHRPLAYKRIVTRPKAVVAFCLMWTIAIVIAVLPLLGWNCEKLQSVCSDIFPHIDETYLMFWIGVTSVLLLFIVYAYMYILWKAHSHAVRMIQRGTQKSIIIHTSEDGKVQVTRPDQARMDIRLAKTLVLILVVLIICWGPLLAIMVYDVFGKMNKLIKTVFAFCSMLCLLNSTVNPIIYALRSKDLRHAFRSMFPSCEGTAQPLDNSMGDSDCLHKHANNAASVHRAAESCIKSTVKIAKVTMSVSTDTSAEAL
Test [24] addresses T8, Cannabinoid receptor 1. Kind of test: SAR analysis of agonists of the Cannabinoid Receptor 1 using an Image-Based Assay - Set 3. [Related pubchem assays (depositor defined):AID1961, AID1965]. The test is classed as functional.
The target in test [25] is T7, G-protein coupled receptor 35. Kind of test: SAR analysis of Antagonists of the GPR35 Receptor using an Image-Based Assay - Set 4. [Related pubchem assays (depositor defined):[…]]. In kind it is functional.
The target in test [26] is Voltage-dependent T-type calcium channel subunit alpha-1H (Homo sapiens, UniProt O95180). Briefly: human CACNA1H calcium influx blockade – cell-based, synthetic library set 2, HEK293 HH8, Fluo-4, SAR follow-up (AID 493023). In kind it is functional.

T6 sequence (P34972 whole entry): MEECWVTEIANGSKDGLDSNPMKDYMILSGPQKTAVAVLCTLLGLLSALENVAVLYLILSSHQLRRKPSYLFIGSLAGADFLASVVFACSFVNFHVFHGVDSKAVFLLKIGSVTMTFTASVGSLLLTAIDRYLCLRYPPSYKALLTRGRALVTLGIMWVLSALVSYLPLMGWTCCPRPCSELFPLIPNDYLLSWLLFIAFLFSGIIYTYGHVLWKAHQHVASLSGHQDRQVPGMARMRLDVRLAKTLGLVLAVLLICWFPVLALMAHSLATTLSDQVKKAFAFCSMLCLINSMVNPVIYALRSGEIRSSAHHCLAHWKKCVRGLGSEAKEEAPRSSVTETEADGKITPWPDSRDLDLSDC
Intestinal-type alkaline phosphatase (Mus musculus, UniProt P24822), sequence (P24822 whole entry): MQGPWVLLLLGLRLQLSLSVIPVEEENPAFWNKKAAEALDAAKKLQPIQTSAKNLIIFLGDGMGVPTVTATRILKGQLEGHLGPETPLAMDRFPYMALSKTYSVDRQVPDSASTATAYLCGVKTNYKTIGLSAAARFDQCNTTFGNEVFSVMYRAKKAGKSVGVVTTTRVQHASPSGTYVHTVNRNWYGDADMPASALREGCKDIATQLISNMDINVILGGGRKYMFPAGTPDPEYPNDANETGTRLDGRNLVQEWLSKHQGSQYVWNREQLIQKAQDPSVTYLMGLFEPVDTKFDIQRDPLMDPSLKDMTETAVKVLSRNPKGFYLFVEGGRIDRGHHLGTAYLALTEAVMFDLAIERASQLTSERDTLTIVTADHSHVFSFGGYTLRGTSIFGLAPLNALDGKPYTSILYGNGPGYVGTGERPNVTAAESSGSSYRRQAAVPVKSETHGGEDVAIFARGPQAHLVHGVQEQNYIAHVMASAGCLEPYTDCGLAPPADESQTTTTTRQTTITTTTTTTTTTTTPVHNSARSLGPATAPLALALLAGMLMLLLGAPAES
Induced myeloid leukemia cell differentiation protein Mcl-1, sequence (Q07820 whole entry): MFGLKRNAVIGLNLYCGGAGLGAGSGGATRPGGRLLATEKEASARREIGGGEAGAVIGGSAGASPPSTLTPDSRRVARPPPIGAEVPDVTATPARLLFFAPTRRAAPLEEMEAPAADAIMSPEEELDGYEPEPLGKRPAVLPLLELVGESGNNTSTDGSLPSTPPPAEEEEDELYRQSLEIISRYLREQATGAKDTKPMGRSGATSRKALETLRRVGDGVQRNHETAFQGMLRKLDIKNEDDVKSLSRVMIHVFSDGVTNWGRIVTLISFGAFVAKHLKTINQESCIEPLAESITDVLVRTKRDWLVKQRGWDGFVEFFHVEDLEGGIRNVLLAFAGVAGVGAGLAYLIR

With `COc1ccccc1N1C(=O)C2C(C(=O)c3ccccc3)=NN(c3ccc(C)cc3)C2C1=O` (stereo unspecified), the EC50 is 13.7 µM (inconclusive) in test [1], 14.3 µM (active) in test [2], 1.7 µM (active) in test [3] and 5.27 µM (active) in test [4].
For the compound `O=C1NC(=S)NC(=O)C1=Cc1ccc(Br)s1`, the IC50 is 64.5 µM (active) in test [5], > 12.1 µM (not active) in test [6], > 109 µM (not active) in test [7] and 36.4 µM (inactive) in test [8]. For the same compound, the EC50 in [9] is 76.8 µM (active); in test [10], 59.7 µM (active); in [11] it was 61.6 µM (active). Also, the AC50 in test [12] was 25.6 µM (active). In addition, the CC50 in [13] was 21.4 µM (active).
`Cn1c2ccccc2c2cnn(CC(=O)Nc3ccc(Cl)cc3)c(=O)c21`: the half-maximal inhibitory concentration (IC50) in test [14] was 46 µM (active).
For the compound `O=C(O)CCC(=O)Nc1cc(C(F)(F)F)cc(C(F)(F)F)c1`, the EC50 in test [15] is > 71.4 µM (inactive).
Consider `C=CCNC(=O)/C(C#N)=C/c1cn(-c2ccccc2)nc1-c1ccc(OC)c([N+](=O)[O-])c1`, for which the IC50 was > 100 µM (inactive) in test [16] and > 100 µM (not active) in test [17].
On to `Brc1ccc(CSc2nnc(-c3ccccn3)n2Cc2cccnc2)cc1`, for which, in [18], the EC50 was 8.51 µM (active).
As for `COc1ccc(-c2csc(NC(=O)CSc3nnc4c(C)cc5cc6c(cc5n34)OCO6)n2)cc1`, the IC50 in test [19], in test [23] and in [25] was > 32 µM (inactive) each time. Besides, the EC50 in test [20], in test [21], in test [22] and in [24] was > 32 µM (inactive) throughout.
Turning to `CC(C)(C)CCN1CCC[C@@H](NC(=O)c2ccc(Cl)cc2Cl)C1`, the EC50 in [26] is 10 µM (active).
